This is an account of results in patent US20090209046A1, “Neutral Pharmaceuticals” (priority 2006, published 2009).

A short description of series [1]: Measurement of solubility in water, octanol saturated water and water saturated octanol. Conditions: 25° C.; for logSR (Swo/Sow): log solubility ratio; for Sow: solubility in octanol saturated water; for Swo: solubility in water saturated octanol; for Sw: solubility in water.
Description: Solubilities were determined at 25° C. in water (Sw), octanol saturated water (Sow), water saturated octanol (Swo). An excess of the sample was added to 15 ml of each solvent and stirred vigorously at 25° C. for 8 hours. […] The supernatant was collected. The supernatant samples after appropriate dilutions with respective solvent were analyzed by UV spec using a standard plot of solute in the same medium. Solubility of copper acetate in water saturated octanol was determined by extracting 200 ml saturated wo solution into 20 ml ow.
A short description of series [2]: Measurement of P: partition coefficient in 1-octanol/water system. Conditions: 25° C., observed, for aspirin and caffeine the parent drug itself.

Consider `CC(=O)Oc1ccccc1C(=O)[O-].CC(=O)Oc1ccccc1C(=O)[O-].CC(=O)Oc1ccccc1C(=O)[O-].CC(=O)Oc1ccccc1C(=O)[O-].[Cu+2].[Cu+2]` [ASP-1, Cu2(ASP)4], for which, in series [1], the “logSR (Swo/Sow)” value was −0.4847, the Sow is listed as 2.981(3) mg/ml, the Swo is 0.9767(36) mg/ml and the Sw is reported as 3.414(25) mg/ml. The logP of complex in series [2] is recorded as −0.2371(267).

With `CC(=O)Oc1ccccc1C(=O)[O-].CC(=O)Oc1ccccc1C(=O)[O-].CC(=O)Oc1ccccc1C(=O)[O-].CC(=O)Oc1ccccc1C(=O)[O-].CN(C)C=O.CN(C)C=O.[Cu+2].[Cu+2]` [ASP-2, Cu2(ASP)4(DMF)2], in series [1], the “logSR (Swo/Sow)” value is given as −0.4873, the Sow is recorded as 4.493(4) mg/ml, the Swo is 1.463(26) mg/ml and the Sw is given as 3.092(33) mg/ml. In addition, the logP of complex in series [2] is −0.3484(166).

Turning to `CC(=O)Oc1ccccc1C(=O)[O-].CC(=O)Oc1ccccc1C(=O)[O-].CC(=O)Oc1ccccc1C(=O)[O-].CC(=O)Oc1ccccc1C(=O)[O-].[Cu+2].[Cu+2].c1ccc2ncccc2c1.c1ccc2ncccc2c1` [ASP-4, Cu2(ASP)4(Quinoline)2], in series [1], the “logSR (Swo/Sow)” value is listed as 0.2133, the Sow is 3.342(3) mg/ml, the Swo is on record as 5.460(23) mg/ml and the Sw is reported as 2.729(1) mg/ml. Moreover, in series [2], the logP of complex is reported as 0.4772(140).

Regarding `CC(=O)Oc1ccccc1C(=O)[O-].CC(=O)Oc1ccccc1C(=O)[O-].[Cu+2].c1ccncc1.c1ccncc1` [ASP-5, Cu(ASP)2(Pyridine)2], in series [1], the “logSR (Swo/Sow)” value was −0.4770, the Sow is listed as 3.629(24) mg/ml, the Swo is listed as 1.210(47) mg/ml and the Sw is on record as 3.425(21) mg/ml.

As for `CC(=O)Oc1ccccc1C(=O)[O-].CC(=O)Oc1ccccc1C(=O)[O-].NC(=O)c1ccncc1.NC(=O)c1ccncc1.[Cu+2]` [ASP-7, Cu(ASP)2(Isonicotinamide)2], in series [1], the “logSR (Swo/Sow)” value was −0.5333, the Sow is given as 5.654(20) mg/ml, the Swo is 1.673(9) mg/ml and the Sw is given as 9.259(5) mg/ml. Besides, the logP of complex in series [2] is reported as −0.4723(272).

As to `CC(=O)Oc1ccccc1C(=O)[O-].CC(=O)Oc1ccccc1C(=O)[O-].NC(=O)c1cccnc1.NC(=O)c1cccnc1.[Cu+2]` [ASP-8, Cu(ASP)2(Nicotinamide)2], in series [1], the “logSR (Swo/Sow)” value is −0.6490, the Sow is 3.361(29) mg/ml, the Swo is 0.7541(97) mg/ml and the Sw was 4.417(50) mg/ml. Also, the logP of complex in series [2] was −0.5257(136).

Turning to `CC(=O)Oc1ccccc1C(=O)[O-].CC(=O)Oc1ccccc1C(=O)[O-].[Cu+2].c1ccc(-c2cccnc2)cc1.c1ccc(-c2cccnc2)cc1` [ASP-9, Cu(ASP)2(3-Phenyl-Pyridine)2], in series [1], the “logSR (Swo/Sow)” value was 0.4495, the Sow is on record as 0.4085(17) mg/ml, the Swo is 1.150(20) mg/ml and the Sw was 0.5415(7) mg/ml.

As for `CC(=O)[O-].CC(=O)[O-].COc1cccc(OC)c1C(=O)[O-].COc1cccc(OC)c1C(=O)[O-].O.O.[Cu+2].[Cu+2]` [MC-2, Cu2(CH3COO)2(DMB)2(H2O)2], in series [1], the “logSR (Swo/Sow)” value is −1.428, the Sow was 15.64(14) mg/ml, the Swo is reported as 0.5841(103) mg/ml and the Sw was 15.82(11) mg/ml. In addition, the logP of complex in series [2] is −1.496(15).

For the compound `COc1cccc(OC)c1C(=O)[O-].COc1cccc(OC)c1C(=O)[O-].COc1cccc(OC)c1C(=O)[O-].COc1cccc(OC)c1C(=O)[O-].O.O.[Cu+2].[Cu+2]` [MC-3, Cu2(DMB)4(H2O)2], in series [1], the “logSR (Swo/Sow)” value is recorded as −0.9168, the Sow is recorded as 31.97(19) mg/ml, the Swo is 3.872(125) mg/ml and the Sw is 33.61(21) mg/ml. Moreover, in series [2], the logP of complex is reported as −1.442(27).

Regarding `O.O.O=C(Oc1ccccc1C(=O)[O-])c1ccccc1O.O=C(Oc1ccccc1C(=O)[O-])c1ccccc1O.O=C(Oc1ccccc1C(=O)[O-])c1ccccc1O.O=C(Oc1ccccc1C(=O)[O-])c1ccccc1O.[Cu+2].[Cu+2]` [SAS-1, Cu2(SAS)4(H2O)2], in series [1], the “logSR (Swo/Sow)” value came to 1.033, the Sow was 0.2962(10) mg/ml, the Swo is reported as 3.200(5) mg/ml and the Sw was 0.2791(6) mg/ml. Also, in series [2], the logP of complex is listed as 0.06927(1394).

`Clc1cccnc1.Clc1cccnc1.O=C(Oc1ccccc1C(=O)[O-])c1ccccc1O.O=C(Oc1ccccc1C(=O)[O-])c1ccccc1O.O=C(Oc1ccccc1C(=O)[O-])c1ccccc1O.O=C(Oc1ccccc1C(=O)[O-])c1ccccc1O.[Cu+2].[Cu+2]` [SAS-3, Cu2(SAS)4(3-Cl-Pyridine)2]: in series [1], the “logSR (Swo/Sow)” value was found to be 0.7472, the Sow is 0.1259(4) mg/ml, the Swo is 0.7034(61) mg/ml and the Sw is 0.1239(1) mg/ml.

For `O=C(Oc1ccccc1C(=O)[O-])c1ccccc1O.O=C(Oc1ccccc1C(=O)[O-])c1ccccc1O.O=C(Oc1ccccc1C(=O)[O-])c1ccccc1O.O=C(Oc1ccccc1C(=O)[O-])c1ccccc1O.[Cu+2].[Cu+2].c1ccc(Cc2ccncc2)cc1.c1ccc(Cc2ccncc2)cc1` [SAS-4, Cu2(SAS)4(4-Benzyl-Pyridine)2], in series [1], the “logSR (Swo/Sow)” value came to 1.336, the Sow is 0.0153(3) mg/ml, the Swo is recorded as 0.3314(22) mg/ml and the Sw is reported as 0.0134(3) mg/ml.

Regarding `C1CCOC1.C1CCOC1.O=C(Oc1ccccc1C(=O)[O-])c1ccccc1O.O=C(Oc1ccccc1C(=O)[O-])c1ccccc1O.O=C(Oc1ccccc1C(=O)[O-])c1ccccc1O.O=C(Oc1ccccc1C(=O)[O-])c1ccccc1O.[Cu+2].[Cu+2].c1ccc(-c2ccncc2)cc1.c1ccc(-c2ccncc2)cc1` [SAS-5, Cu2(SAS)4(4-Phenyl-Pyridine)2(THF)2], in series [1], the “logSR (Swo/Sow)” value was determined as 1.593, the Sow is 0.0315(2) mg/ml, the Swo is 1.236(18) mg/ml and the Sw is recorded as 0.0303(3) mg/ml. Moreover, in series [2], the logP of complex is reported as 1.231(53).

As to `O=C(Oc1ccccc1C(=O)[O-])c1ccccc1O.O=C(Oc1ccccc1C(=O)[O-])c1ccccc1O.[Cu+2].c1ccncc1.c1ccncc1.c1ccncc1` [SAS-6, Cu(SAS)2(Pyridine)3], in series [1], the “logSR (Swo/Sow)” value is 0.7655, the Sow is 0.3291(8) mg/ml, the Swo is recorded as 1.918(5) mg/ml and the Sw is recorded as 0.4065(8) mg/ml.

`Cc1ccncc1.Cc1ccncc1.O=C(Oc1ccccc1C(=O)[O-])c1ccccc1O.O=C(Oc1ccccc1C(=O)[O-])c1ccccc1O.[Cu+2]` [SAS-8, Cu(SAS)2(4-Me-Pyridine)2]: in series [1], the “logSR (Swo/Sow)” value amounted to 0.9488, the Sow is on record as 0.2174(10) mg/ml, the Swo was 1.932(23) mg/ml and the Sw is 0.2301(18) mg/ml.

With `CCc1ccncc1.CCc1ccncc1.O=C(Oc1ccccc1C(=O)[O-])c1ccccc1O.O=C(Oc1ccccc1C(=O)[O-])c1ccccc1O.[Cu+2]` [SAS-9, Cu(SAS)2(4-Et-Pyridine)2], in series [1], the “logSR (Swo/Sow)” value was 1.115, the Sow was 0.1104(8) mg/ml, the Swo is reported as 1.438(9) mg/ml and the Sw is recorded as 0.1143(2) mg/ml.
